{"source": "patent US9339508B2", "about": "“Use of 3-methoxy-pregnenolone for the preparation of a drug for treating a traumatic brain injury” (MAPREG, priority 2003, dated 2016)", "key": {"PC12 cells": {"tested_on": "PC12 cells", "experiment": "Neuritic growth / sprouting of PC12 cells in the presence of NGF", "assay_type": "cell-based, rat", "conditions": "30 μM; for Neuritic sprouting: 3 days, NGF 10 ng/ml, relative to PREG", "experimental": "Each molecule was tested in three culture wells. Measurements were taken for 200 cells per well using Scion Image software.\nNeurite (neurite) length was measured for 200 cells per well after 2, 5, and 8 days of culture.\nTo rest the effect of selected molecules on neuritic growth, we first used the PC12 line, which has long been employed in neurobiological research. In the presence of NOF (nerve growth factor), the cells of this line, which arise from a rat pheochromocytoma, form neuritic extensions containing MAP-associated microtubules.\nStimulation of neuritic sprouting is conducted on PC12 cells differentiated in the presence of NGF (10 ng/ml) and the steroid being tested (30 μM) for 3 days. For each condition, the average length of the longest 200 neurites in each cell is measured simultaneously for 3 cultures."}, "[1]": {"tested_on": "α-tubulin in rat hippocampus", "experiment": "Microtubule dynamics in rat hippocampus (Tyr/Glu-Tub ratio, Acet-Tub)", "assay_type": "in vivo", "conditions": "10 mg/kg subcutaneously, single administration", "text": "Mean±SEM, n=6 per group. **P<0.01, *P<0.5 vs sesame oil.\nThe effects produced by neurosteroids were compared with those produced by acute administration of the antidepressant drug fluoxetine (selective serotonin reuptake inhibitor SSRI).\nNeurosteroids and 3-Methoxy-PREG (43B) Levels"}, "[2]": {"target": "purified tubulin and MAP2 (Homo sapiens, UniProt P11137)", "sequence (P11137 whole entry)": "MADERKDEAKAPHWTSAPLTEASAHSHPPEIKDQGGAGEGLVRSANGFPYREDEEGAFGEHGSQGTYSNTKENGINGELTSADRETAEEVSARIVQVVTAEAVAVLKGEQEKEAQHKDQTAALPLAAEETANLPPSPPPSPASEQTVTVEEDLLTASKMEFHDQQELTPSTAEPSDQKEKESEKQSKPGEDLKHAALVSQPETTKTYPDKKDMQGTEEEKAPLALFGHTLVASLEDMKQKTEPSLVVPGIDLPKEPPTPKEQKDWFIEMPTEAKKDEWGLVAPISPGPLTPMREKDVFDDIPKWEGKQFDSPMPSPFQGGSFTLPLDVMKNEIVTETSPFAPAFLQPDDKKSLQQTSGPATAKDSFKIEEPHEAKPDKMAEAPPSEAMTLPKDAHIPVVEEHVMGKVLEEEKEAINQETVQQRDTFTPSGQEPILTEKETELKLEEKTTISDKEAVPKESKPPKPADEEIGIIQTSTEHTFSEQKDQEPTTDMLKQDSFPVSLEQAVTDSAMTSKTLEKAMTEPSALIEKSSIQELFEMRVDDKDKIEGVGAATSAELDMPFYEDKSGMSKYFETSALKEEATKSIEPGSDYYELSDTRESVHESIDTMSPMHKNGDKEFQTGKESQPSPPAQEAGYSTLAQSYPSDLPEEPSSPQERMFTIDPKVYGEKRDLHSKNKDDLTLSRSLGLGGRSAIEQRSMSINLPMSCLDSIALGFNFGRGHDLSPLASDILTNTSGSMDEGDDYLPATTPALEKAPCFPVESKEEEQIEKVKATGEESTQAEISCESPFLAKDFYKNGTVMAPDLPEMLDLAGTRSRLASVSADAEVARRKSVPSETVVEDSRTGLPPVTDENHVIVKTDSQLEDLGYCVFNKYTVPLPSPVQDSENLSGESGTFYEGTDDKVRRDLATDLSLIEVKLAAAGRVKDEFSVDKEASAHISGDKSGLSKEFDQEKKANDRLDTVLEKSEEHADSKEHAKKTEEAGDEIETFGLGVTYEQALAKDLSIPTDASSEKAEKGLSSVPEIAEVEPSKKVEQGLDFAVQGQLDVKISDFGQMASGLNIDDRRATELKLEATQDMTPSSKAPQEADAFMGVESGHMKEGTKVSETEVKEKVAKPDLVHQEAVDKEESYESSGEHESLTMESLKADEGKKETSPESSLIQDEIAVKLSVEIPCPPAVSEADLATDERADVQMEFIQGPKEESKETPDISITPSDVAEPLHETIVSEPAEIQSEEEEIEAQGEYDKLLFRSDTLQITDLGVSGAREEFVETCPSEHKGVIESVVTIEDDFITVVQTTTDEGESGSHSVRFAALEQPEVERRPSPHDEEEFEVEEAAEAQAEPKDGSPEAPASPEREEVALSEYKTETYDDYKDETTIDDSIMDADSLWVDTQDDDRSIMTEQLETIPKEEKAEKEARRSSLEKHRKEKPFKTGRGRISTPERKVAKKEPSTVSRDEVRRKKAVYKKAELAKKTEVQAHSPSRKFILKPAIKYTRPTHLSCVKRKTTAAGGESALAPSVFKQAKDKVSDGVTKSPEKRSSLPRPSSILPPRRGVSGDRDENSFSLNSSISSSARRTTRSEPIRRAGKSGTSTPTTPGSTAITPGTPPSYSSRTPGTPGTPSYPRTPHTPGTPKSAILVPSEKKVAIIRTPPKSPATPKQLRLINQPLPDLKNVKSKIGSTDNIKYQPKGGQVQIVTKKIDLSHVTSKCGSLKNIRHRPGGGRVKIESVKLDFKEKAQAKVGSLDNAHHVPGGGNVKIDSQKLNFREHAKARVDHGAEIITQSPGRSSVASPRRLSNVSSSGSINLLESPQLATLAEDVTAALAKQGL", "experiment": "MAP2-induced polymerization of microtubules in vitro (optical density at 345 nm)", "assay_type": "biochemical", "experimental": "Purified MAP2 and tubulin are mixed in the presence of GTP at 4° C. in a spectrophotometer cuvette. Polymerization is induced by heating at 37° C. and is followed by the increase in optical density (OD) which indicates the quantity of polymers formed.\nThis in vitro test measures the effect of molecules on the MAP2-induced polymerization of microtubules. This polymerization occurs when MAP2 proteins and tubulin are mixed at adequate concentrations in the presence of GTP. It is accompanied by an increase in optical density measured at 345 nm for 15 to 30 minutes with a UNICON spectrophotometer thermostated at 37° C. (FIG. 1).\nActivity is measured by the increase in optical density at 345 nm of a mixture of purified tubulin and MAP2, incubated at 37° C. in the presence of GTP."}, "[3]": {"target": "T1, human progesterone receptor (PR) (Homo sapiens, UniProt P06401)", "T1 construct": "expressed in transfected cells; host or cells: HEK293T cells", "T1 sequence (P06401 1-933)": "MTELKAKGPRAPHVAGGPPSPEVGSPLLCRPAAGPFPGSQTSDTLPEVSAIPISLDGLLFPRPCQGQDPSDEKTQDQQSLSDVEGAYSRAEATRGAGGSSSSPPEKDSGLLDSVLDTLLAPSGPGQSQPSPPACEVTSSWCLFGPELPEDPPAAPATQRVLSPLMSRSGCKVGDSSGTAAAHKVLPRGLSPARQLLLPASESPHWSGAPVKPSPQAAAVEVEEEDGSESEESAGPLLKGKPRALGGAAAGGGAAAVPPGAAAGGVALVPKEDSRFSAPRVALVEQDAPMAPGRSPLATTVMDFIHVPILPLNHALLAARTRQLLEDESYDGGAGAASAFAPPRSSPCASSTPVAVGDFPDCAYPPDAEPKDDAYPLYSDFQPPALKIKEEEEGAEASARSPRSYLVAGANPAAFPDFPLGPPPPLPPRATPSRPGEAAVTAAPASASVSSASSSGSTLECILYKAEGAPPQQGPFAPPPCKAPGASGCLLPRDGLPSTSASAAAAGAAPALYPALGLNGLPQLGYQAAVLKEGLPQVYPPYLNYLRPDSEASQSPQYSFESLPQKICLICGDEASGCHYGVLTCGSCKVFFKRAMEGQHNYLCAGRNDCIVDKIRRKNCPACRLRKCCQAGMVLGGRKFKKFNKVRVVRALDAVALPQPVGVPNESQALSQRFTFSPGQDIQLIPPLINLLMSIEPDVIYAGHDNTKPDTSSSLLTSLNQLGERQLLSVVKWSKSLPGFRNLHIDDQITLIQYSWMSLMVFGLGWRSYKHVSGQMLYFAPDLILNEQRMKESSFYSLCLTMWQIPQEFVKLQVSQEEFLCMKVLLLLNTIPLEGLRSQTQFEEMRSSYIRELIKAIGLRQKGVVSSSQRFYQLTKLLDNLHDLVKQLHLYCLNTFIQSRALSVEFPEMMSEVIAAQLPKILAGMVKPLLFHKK", "experiment": "Test of progesterone receptor agonist activity (luciferase transactivation, HEK293T)", "assay_type": "cell-based", "conditions": "24 hours, increasing amounts", "experimental": "(§1) The main experimental setting used is the following: HEK293T cells were transiently transfected, using calcium phosphate precipitation technology, with expression receptors pSG5hPR (which permits expression of human progesterone receptor (PR)), pFC31-luc (contains the luciferase gene under the control of the MTV promoter, which is in turn activated by binding of a progestin to progesterone receptor) and pcbetagal (which permits expression of betagalactosidase), and cultured during 24 hours with increasing amounts of various compositions: • 1. […] Test of progesterone receptor […] activity: transfected cells were cultured with progesterone (1 nM) and increasing amounts of RU486 (a well-known progesterone receptor antagonist) or 3-methoxy-pregnenolone. • With this setting, a compound with progesterone receptor antagonist activity competes with progesterone for the occupation of progesterone receptor and results in a progressive loss of transactivation activity when the amount of this compound is increased compared to progesterone. Results"}, "[4]": {"target": "T1, human progesterone receptor (PR)", "experiment": "Test of progesterone receptor antagonist activity (luciferase transactivation, HEK293T)", "assay_type": "cell-based", "conditions": "with progesterone 1 nM, increasing amounts", "experimental": "as §1"}, "PC12 cell line": {"tested_on": "PC12 cell line", "experiment": "Cellular toxicity on the PC12 cell line", "assay_type": "cell-based, rat", "conditions": "concentrations as high as solubility limits", "experimental": "Cellular toxicity tests are carried out routinely on the PC12 cell line."}, "[5]": {"tested_on": "transgenic mice expressing the longest isoform of human tau protein", "experiment": "RotaRod motor incoordination in transgenic tau mice", "assay_type": "in vivo, mouse", "conditions": "subcutaneous implant releasing 0.38 mg per day for 90 days", "text": "FIG. 8: Effect of molecule 43B on the motor incoordination of transgenic mice expressing the longest isoform of human tau protein in their neurons. […] The maximum speed of rotation of the RotaRod drum before the […] falls is a measurement of motor coordination (higher values correspond to a better treatment effect).\nIn order to evaluate the therapeutic potential of 433 to treat Alzheimer-type neurodegenerative diseases, a homozygous transgenic line of mice, such as described by Götz (EMBO J. 1995; 14(7):1304-13), can be used.\nThese mice express the longest human tau protein isoform. They present symptoms of neurological dysfunction expressed as muscular weakness and a reduction in motor coordination which correlate histologically with the appearance of abnormal neurites and hyperphosphorylated tau proteins as is seen in Alzheimer's disease. This pathological phosphorylation decreases the affinity of tau for microtubules and favors its aggregation.\nA breeding program was undertaken at Bicêtre and genotyping made it possible to select mice homozygous for the transgene. […] The implants released 0.38 mg of steroid per day for 90 days. The progression of motor incoordination was followed by repeated RotaRod tests."}, "Sprague Dawley rats": {"tested_on": "Sprague Dawley rats", "experiment": "Forced swimming test (FST)", "assay_type": "in vivo, rat", "conditions": "10 mg/kg subcutaneously, 24, 5, 1 h before testing", "experimental": "Drugs were administered following the traditional dosing regimen used in the FST consisting of three injections: 24, 5, 1 h before testing.\nThe FET is currently the most widely used animal model for assessing depression related behavior and antidepressant drug activity in rodents (Cryan et al., Neubiorev. 2005). Rats are placed in an inescapable cylinder of water where they develop an immobile posture believed to reflect a “depressive”-like state. The Lime rats spend immobile is decreased by drugs exerting antidepressant activity.\nAdditional behaviors can be detected in the FST; namely, climbing and swimming. It has been shown that swimming behavior is sensitive to SSRIs such as fluoxetine whereas climbing is sensitive to norepinephrine re-uptake inhibitors (NRI) such as desipramine."}, "[6]": {"conditions": "40 μM, compared to solvent alone"}}, "data": [{"molecule": "CO[C@H]1CC[C@@]2(C)[C@@H](CC[C@@H]3[C@@H]2CC[C@]2(C)[C@@H](C(C)=O)CC[C@@H]32)C1", "note": "[3β-methoxy-5α-pregnane-20-one]", "values": [{"measurement": "Neuritic sprouting", "setting": "PC12 cells", "value": "+++"}]}, {"molecule": "CC(=O)[C@@]12C[C@@H]1C[C@H]1[C@@H]3CC=C4C[C@@H](O)CC[C@]4(C)[C@H]3CC[C@@]12C", "note": "[PREG-16α,17α-methylene]", "values": [{"measurement": "Neuritic sprouting", "setting": "PC12 cells", "value": "+ (lower than)"}]}, {"molecule": "CO[C@H]1CC[C@@]2(C)C(CCC3C2CC[C@@]2(C)C3CC[C@@H]2[C@@H](C)O)C1", "note": "(stereo partly drawn) [3β-methoxy-5α-pregnane-20β-ol]", "values": [{"measurement": "Neuritic sprouting", "setting": "PC12 cells", "value": "++ (equal to)"}]}, {"molecule": "CNCCC(Oc1ccc(C(F)(F)F)cc1)c1ccccc1", "note": "(centres unmarked) [fluoxetine]", "values": [{"measurement": "Acet-Tub (stable acetylated α-tubulin)", "setting": "[1]", "value": "tendency to increase"}, {"measurement": "Tyr/Glu-Tub ratio", "setting": "[1]; 3 h", "value": "did not change"}]}, {"molecule": "CC(=O)[C@H]1[C@H](C)C[C@H]2[C@@H]3CC=C4C[C@@H](O)CC[C@]4(C)[C@H]3CC[C@@]21C", "note": "[PREG-16α-methyl]", "values": [{"measurement": "Neuritic sprouting", "setting": "PC12 cells", "value": "++ (equal to)"}]}, {"molecule": "PREG-16α,17α-epoxy", "values": [{"measurement": "Neuritic sprouting", "setting": "PC12 cells", "value": "+ (lower than)"}]}, {"molecule": "CC(=O)[C@H]1CC[C@H]2[C@@H]3CCC4=CC(=O)CC[C@]4(C)[C@H]3CC[C@]12C", "note": "[progesterone, reference compound]", "values": [{"measurement": "microtubule polymerization", "setting": "[2]", "value": "do not stimulate polymerization"}, {"measurement": "progesterone receptor agonist activity (transactivation)", "setting": "[3]", "value": "permits a transactivation activity leading to the expression of luciferase"}]}, {"molecule": "pregnenolone sulfate", "values": [{"measurement": "microtubule polymerization", "setting": "[2]", "value": "do not stimulate polymerization"}]}, {"molecule": "CO[C@H]1CC[C@@]2(C)C(=CC[C@@H]3[C@@H]2CC[C@@]2(C)[C@H]3CC[C@@]2(C(C)=O)C(Cl)Cl)C1", "note": "[3β-methoxy-pregna-5-ene-20-one-17α-dichloromethyl]", "values": [{"measurement": "Neuritic sprouting", "setting": "PC12 cells", "value": "+++"}]}, {"molecule": "CC#C[C@]1(O)CC[C@H]2[C@@H]3CCC4=CC(=O)CCC4=C3[C@@H](c3ccc(N(C)C)cc3)C[C@@]21C", "note": "[RU486]", "values": [{"measurement": "progesterone receptor antagonist activity", "setting": "[4]", "value": "very high antagonist activity"}]}, {"molecule": "CC(=O)[C@H]1CC[C@H]2[C@@H]3CC=C4C[C@@H](O)CC[C@]4(C)[C@H]3CC[C@]12C", "note": "[PREG, pregnenolone]", "values": [{"measurement": "microtubule polymerization", "setting": "[2]", "value": "activates microtubule polymerization"}, {"measurement": "Lag time of microtubule polymerization", "setting": "[2]; [6]", "value": "decreased"}, {"measurement": "polymerization rate and quantity of microtubules", "setting": "[2]; [6]", "value": "clearly increase"}, {"measurement": "increase in the average length of the neurites", "setting": "PC12 cells; 3 days of culture, NGF", "value": 60, "unit": "%"}, {"measurement": "Neuritic sprouting", "setting": "PC12 cells", "value": "++ (equal to)"}, {"measurement": "cellular toxicity", "setting": "PC12 cell line", "value": "do not demonstrate toxicity"}, {"measurement": "motor dysfunction (RotaRod)", "setting": "[5]", "value": "Only the 3-methoxy-PREG had a beneficial effect"}, {"measurement": "Acet-Tub (stable acetylated α-tubulin)", "setting": "[1]", "value": "significantly decreased"}, {"measurement": "rat climbing behavior in the FST", "setting": "Sprague Dawley rats", "value": "not changed"}, {"measurement": "rat swimming in the FST", "setting": "Sprague Dawley rats", "value": "significantly increased"}]}, {"molecule": "CC(=O)O[C@H](C)[C@H]1CC[C@H]2[C@@H]3CC=C4C[C@@H](O)CC[C@]4(C)[C@H]3CC[C@]12C", "note": "[Pregna-5-ene-3β,20β-diol-20-acetate]", "values": [{"measurement": "Neuritic sprouting", "setting": "PC12 cells", "value": "++ (equal to)"}]}]}
